Experimental data from US11707431B2, “Dental strips for the delivery of specifically targeted antimicrobial peptides” (C3 Jian, LLC, priority 2017, dated 2023).
No end group written: not given here.

test system: MRSA; experiment: MIC against MRSA; type: cell-based; conditions: not given

Row | Molecule | MIC
1 | FESKILNASKELDKEKKVNTALSFNSHQDFAKAYQNGKI [PF-606] | MRSA, 50 μM
2 | FIRKFLQKLHL [K-16] | MRSA, 25 μM
3 | GSVIKKRRKRMAKKKHRKLLKKTRIQRRRAGK [PF-527] | MRSA, 50 μM
4 | KFQGEFTNIGQSYIVSASHMSTSLNTGK [PF-583] | MRSA, 50 μM
5 | MGIIAGIIKFIKGLIEKFTGK [PF-006] | MRSA, 50 μM
6 | MRFGSLALVAYDSAIKHSWPRPSSVRRLRM [PF-672] | MRSA, 1.56 μM
7 | NYAVVSHT [PF-209] | MRSA, 50 μM
8 | RESKLIAMADMIRRRI [PF-545] | MRSA, 50 μM
9 | VLPFPAIPLSRRRACVAAPRPRSRQRAS [PF-168] | MRSA, 50 μM

test system: S. mutans; experiment: not given; conditions: Streptococcus mutans

Row | Molecule | % viability remaining [%]
10 | TAFRLANRSATQALGK [F2/6/10-A2/6/10_C16G2] | 78
11 | TFFRLFNRSFTQALAK [G15-A15_C16G2] | 47
12 | TFFRLFNRSFTQALDK [G15-D15_C16G2] | 47
13 | TFFRLFNRSFTQALFK [G15-F15_C16G2] | 29
14 | TFFRLFNRSLTQALGK [F10-L10_C16G2] | 30
15 | TFFRLFNRSQTQALGK [F10 to Q10_C16G2] | 73
16 | TFFRLLNRSFTQALGK [F6-L6_C16G2] | 43
17 | TFFRLQNRSFTQALGK [F6 to Q6_C16G2] | 79
18 | TLFRLFNRSFTQALGK [F2-L2_C16G2] | 63
19 | TLFRLLNRSLTQALGK [F2F6F10-L2L6L10_C16G2] | 26
20 | TQFRLFNRSFTQALGK [F2 to Q2_C16G2] | 47
21 | TQFRLQNRSQTQALGK [F7/11/15 sub Q_C16G2] | 93
22 | TWFRLFNRSFTQALGK [F2-W2_C16G2] | 45

test system: not given; experiment: not given; conditions: in vivo; cited from earlier work

Row | Molecule | reduce cavities
23 | OC[C@@H](O)[C@H](O)[C@@H](O)CO [Xylitol] | up to 80%

same assay, conditions: long-term; cited from earlier work

Row | Molecule | long-term reduction in caries
24 | OC[C@@H](O)[C@H](O)[C@@H](O)CO [Xylitol] | 88-93%
